Measured values from patent US9675662B2, “Compositions for inhibition of RNA polymerase I and methods of production and use thereof” (The Board of Regents of the University of Oklahoma, priority 2011, dated 2017).
Entries after “also recorded” stand apart in the source; their conditions may differ. Read-outs that look alike come from different tables or passages of the source. Where no end group is shown, it is not given here. The star is where a group is joined. Biotin = O=C1N[C@H]2[C@H](CS[C@H]2CCCCC(=O)*)N1

Assays:
[1] = target: T1, Rrn3 (Homo sapiens, UniProt Q9NYV6); experiment: Binding of purified recombinant Rrn3 to streptavidin beads carrying biotinylated 22mer (pull-down, western blot); conditions: western blotting for Rrn3 (anti-FLAG)
T1 construct: made in house
T1 sequence (Q9NYV6 whole entry, species assumed): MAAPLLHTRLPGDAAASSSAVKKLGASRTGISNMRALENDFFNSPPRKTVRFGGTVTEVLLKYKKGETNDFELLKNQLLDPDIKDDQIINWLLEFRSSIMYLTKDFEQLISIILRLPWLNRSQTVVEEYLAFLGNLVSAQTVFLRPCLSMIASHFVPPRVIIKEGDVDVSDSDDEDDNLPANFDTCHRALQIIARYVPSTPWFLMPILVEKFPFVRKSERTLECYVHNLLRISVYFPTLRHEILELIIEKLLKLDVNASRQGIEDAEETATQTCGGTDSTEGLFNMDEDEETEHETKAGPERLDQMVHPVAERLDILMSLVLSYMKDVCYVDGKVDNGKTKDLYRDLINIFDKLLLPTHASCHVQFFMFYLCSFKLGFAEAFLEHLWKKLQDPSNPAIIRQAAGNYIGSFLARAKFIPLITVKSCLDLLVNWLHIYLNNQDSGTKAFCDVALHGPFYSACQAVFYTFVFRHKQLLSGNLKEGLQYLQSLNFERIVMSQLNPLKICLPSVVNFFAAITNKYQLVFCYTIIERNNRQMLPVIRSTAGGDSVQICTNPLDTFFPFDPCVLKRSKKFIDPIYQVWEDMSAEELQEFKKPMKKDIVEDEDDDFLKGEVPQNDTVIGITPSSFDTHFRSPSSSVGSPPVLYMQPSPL
Description: Immunoaffinity purified Rrn3 was incubated with streptavidin beads that had been preincubated with biotin-tagged 22mer or control extracts. After the beads were washed the proteins bound to the beads were analyzed by SDS-PAFE and western blotting for Rrn3 (anti-FLAG antibody).
In order to address that question, a biotinylated peptide made up of those 22 amino acids (biotin-[…] (SEQ ID NO:1)) was attached to streptavidin beads, and the ability to bind purified, recombinant Rrn3 was determined.

[2] = tested on: rDNA transcription in N1S1 cells; experiment: [3H]-uridine incorporation into newly synthesized RNA in transduced N1S1 cells; type: cell-based, rat; conditions: 40 μM, eight hours after transduction
Description: FIG. 7 illustrates that transduction of the 22mer inhibits rDNA transcription in tissue culture cells. Low density cultures of N1S1 cells were transduced with the TAT-22mer (40 μM). Eight hours after transduction, the cells were incubated with tritiated uridine to label newly synthesized RNA. Total RNA was precipitated with TCA and collected on glass fiber filters, and the radioactivity incorporated was measured by liquid scintillation counting.

[3] = tested on: N1S1 rat hepatoma cells; experiment: Growth of N1S1 hepatoma cells after peptide transduction; type: cell-based
Description: FIG. 14 illustrates the effects of TAT-22mer (labeled “STBY”) on the growth of N1S1 rat hepatoma cells.
FIG. 15 illustrates the effects of TAT-22mer (labeled “STBY”) on the growth of N1S1 rat hepatoma cells (fresh peptide added after 24 hours).
This effect was then tested […], i.e. with immortalized cells in tissue culture. There are several possible ways of introducing the desired peptide into cells. In a first experiment, ten amino acids, YGRKKEEQRR (SEQ ID NO:176), were added to the N-terminus of the 22mer peptide, […] (resulting in a sequence of […] (SEQ ID NO:175)); the ten amino acids were added to assist in transduction of the peptide into the cells. The TAT peptide is an NH2-terminal 11-amino acid protein transduction domain (PTD) from the human immunodeficiency virus (HIV) TAT protein that was first identified in 1988 by Green et al. This peptide and peptides like it are capable of transducing proteins across the cell membrane.
The effects of transducing the 22mer coupled to TAT peptide were then compared to TAT peptide alone. An aggressive chemically-induced hepatoma cell line (N1S1 cells) was used for these experiments.
(§1) When the sequence of the 22mer was examined, it was noted that it contains two cysteine residues that might form a disulfide bond and inhibit the activity of the peptide. To examine this question, the experiment previously carried out on the N1S1 cells was repeated using peptide that was dissolved in 0.1 mM […].

[4] = tested on: WI38 cells; experiment: Growth of WI38 cells (MTT assay) and peptide uptake; type: cell-based; conditions: 48 hours
Description: FIG. 11 illustrates the effects of TAT-22mer on WI38 cells after 48 hours using the MTT assay.
(§2) In these experiments, and in others described below, cell numbers were determined using the […], and the absorbance at 570 nm is presented instead of cell numbers.

[5] = tested on: U937 human lymphoma cells; experiment: Growth of U937 cells; type: cell-based
Description: FIG. 13 illustrates the effects of TAT-22mer on the growth of U937 cells after 24 hours.
as §2

[6] = tested on: P1798 mouse lymphosarcoma cells; experiment: Growth and viability (Trypan blue exclusion) of P1798 lymphosarcoma cells; type: cell-based
Source text: FIG. 16 illustrates the effect of TAT-22mer on P1798 mouse lymphosarcoma cells.
FIG. 17 contains micrographs of P1798 mouse lymphosarcoma cells treated with TAT-22mer (“STBY peptide”) at indicated doses. The cells were stained with trypan blue to determine viability.
FIG. 18 illustrates the effects of TAT-22mer (TAT-STBY) and TAT-STBY C-Mu on P1798 mouse lymphosarcoma cells.
FIG. 19 illustrates the effects of TAT-22mer (TAT-STBY) and TAT-STBY C-Mu on the viability of P1798 mouse lymphosarcoma cells. The same cells studied in the experiment presented in FIG. 18, were also stained with Trypan blue to determine viability. The viable cell counts at 10 and 24 hrs of treatment were too low to be considered reliable (*).
FIG. 20 illustrates the effects of TAT-22mer (TAT-STBY) and TAT-STBY C-Mu on the viability of P1798 mouse lymphosarcoma cells as analyzed in FIGS. 18 and 19.
FIG. 21 illustrates the effects of TAT-22mer (TAT-STBY) and TAT-STBY C-Mu on P1798 mouse lymphosarcoma cells. P1798 Cells were treated with TAT-STBY C-Mu for 26 hours and then stained with Trypan blue. […] The treated cells were concentrated 20× for photography.
FIG. 22 illustrates the kinetics of cell death following treatment with C-Mu peptide. […] Cells were harvested by centrifugation every two hours, and the numbers of viable cells were determined using the Trypan blue exclusion assay.
as §1
In fact, automated cell-cell counting was inaccurate due to the increased amount of dead cells and debris (FIGS. 19-20).

[7] = tested on: rDNA transcription (RNA polymerase I); experiment: Cell-free rDNA transcription reaction (N1S1 nuclear extracts, rat rDNA promoter); type: biochemical; conditions: added in excess to transcription reaction
Source text: FIG. 6 illustrates squelching by excess Rpa43 or the peptide (22mer) that mediates the interaction between Rpa43 and Rrn3.
To test this model, recombinant Rpa43 was purified and added to cell free transcription reactions to determine if excess Rpa43 could inhibit transcription. The components added to this reaction included nuclear extracts of N1S1 cells (a rat tumor cell line), and recombinant DNA of the rat rDNA promoter and the purified, recombinant Rpa43 or purified synthetic peptides (FIG. 6). […] A similar series of experiments was then undertaken with synthetic peptides. The two peptides were based on the sequence of the region shown to be required for the interaction between Rrn3 and Rpa43 (FIG. 6, Panel B).

[8] = tested on: 293T cells; experiment: Growth of 293T-based cell lines expressing doxycycline-inducible peptide; conditions: peptide expressed in cells grown in doxycycline; versus Ψ peptide
Source text: To confirm and extend these studies, cell lines were constructed that were based on 293T cells (Invitrogen, Carlsbad, Calif.), that expressed doxycycline-inducible 22mer or the random peptide (Ψ). […] N.B., there was an inhibition of growth.

[9] = tested on: NIH 3T3 cells; experiment: Growth of NIH 3T3 cells after 48 hours; type: cell-based; conditions: three plating densities, 40 and 60 μM
Description: FIG. 10 illustrates the effects of a TAT-tagged 22mer (TAT-22mer) composition of the presently disclosed inventive concept(s) on NIH 3T3 cells plated at three different densities after 48 hours.
However, it was possible that the same peptide would inhibit the growth of “normal” cells as well. To examine this possibility, TAT-tagged 22mer was added to the media of NIH 3T3 cells, and growth was measured after 48 hours.
as §2

[10] = tested on: A431 cells; experiment: Growth of A431 cells plated at low density; type: cell-based; conditions: 72 hr
Description: FIG. 12 illustrates the effects of TAT-22mer on the growth of A431 cells plated at low density after 72 hr.
as §2

Substance: Biotin-NKVSSSHIGCLVHGCFNASIPK (cysteine pairing not given here) [biotinylated 22mer]
- binding of Rrn3 to bead-bound peptide [1]: Rrn3 bound to beads
- binding of Rrn3 to bead-bound peptide ([1]; listed as biotin-tagged 22mer): sufficient to mediate interaction between Rpa43 and Rrn3

Substance: YGRKKEEQRRNKVSSSHIGCLVHGCFNASIPK (1st ten amino acids are TAT peptide from HIV; last 22 amino acids are from Homo sapiens) [TAT-22mer, 22mer with ten TAT amino acids added to the N-terminus]
- inhibition of rDNA transcription ([2]; inferred from uridine incorporation): ~100%
- inhibition of [3H]-uridine incorporation ([2]; low density N1S1 cultures): 70%
- N1S1 cell growth / cell division [3]: cell growth was inhibited
- N1S1 cell growth / cell division ([3]; listed as STBY): very significant effects on the growth
- decrease in number of treated N1S1 cells ([3]; peptide dissolved in 0.1 mM reducing agent (dithiothreitol), fresh peptide added after 24 hours): 90%
- growth of WI38 cells [4]: minimal effect on cell accumulation
- growth of U937 cells [5]: very significant effects on the growth
- growth of U937 cells at 80 μM ([5]; 80 μM, 24 hours): significant inhibition of cell growth
- growth of P1798 cells [6]: very significant effects on the growth
- Trypan blue dye exclusion by P1798 cells ([6]; 40 μM): did not exclude the dye
- response of P1798 cells at 40 micromolar ([6]; 40 micromolar, cells grown in a reducing medium): significant response
- number of viable P1798 cells ([6]; photomicrographs, Trypan blue): significantly reduced the number of viable cells

Substance: NKVSSSHIGCLVHGCFNASIPK (listed as Homo sapiens) [22mer, amino acids 137 to 158 of mouse Rpa43]
- inhibition of cell-free rDNA transcription [7]: inhibits transcription; also recorded: transcription was inhibited
- cell growth / rate of cell division [8]: inhibits cell growth; also recorded: significant decrease in the rate of cell division
- N1S1 cell growth / cell division [3]: inhibits cell division; also recorded: significantly inhibited cell growth in a dose-dependent manner
- appearance of N1S1 cells ([3]; 40 μM, after 48 hr): appeared to be apoptotic
- rate of N1S1 cell accumulation ([3]; 20 and 40 μM): decreased rate of cell accumulation
- growth of 3T3 cells [9]: no effects on the growth
- growth of WI38 cells [4]: minimal effect on the growth
- growth of A431 cells [10]: inhibited the growth
